{
  "source": "patent US12370158B2",
  "about": "“Analogs of CYP-eicosanoids for use in treating or preventing a disorder associated with neovascularization and/or inflammation” (OMEICOS Therapeutics GmbH, priority 2016, dated 2025)",
  "key": {"[1]": {"assay": "Ocular pharmacokinetics of Comp-02 after intravitreal injection in rabbit", "type": "in vivo, pigmented HY79b rabbits", "details": "for AUC / Tmax / half-life / Cmax: male, pigmented HY79b; for AUC / Tmax / half-life: intravitreal; for AUC: read-out: AUC1-48 hours; for half-life: calculated from the Tmax value; for Cmax: topical or ocular, single vitreal injection of 50 μl (1 mg/mL) in both eyes", "protocol": "(§1) Study design: To gain insight into the distribution behaviour of synthetic 17,18-EEQ-agonists, ocular pharmacokinetic studies were performed in pigmented HY79b rabbits. Briefly, 15 male rabbits per administration route were anesthetized at the time-points for sampling indicated in tables 2-4 by an intramuscular injection of a mixed solution of xylazine and ketamine. Blood collection was performed by cardiac puncture in K3EDTA tubes and centrifuged at 2000 g, 10 min at 4° C. Approximately 3 mL of plasma were sampled, put in plastic tubes, snap frozen in liquid nitrogen and stored at −80° C. until assay. Then animals were euthanized by intracardiac injection of overdosed pentobarbital. This method is one of the recommended methods for euthanasia by the European authorities (French decree No. 2013-118, dated Feb. 1, 2013 publishing the European directive 2010/63/UE. J.Offic. Rp. Fr. 2013; Text 24 out of 130). Immediately after euthanasia, samples from both eyes were quickly and carefully taken, put in plastic tubes, weighed, snap frozen in liquid nitrogen and stored at −80° C. until assay. Content of Comp-02 was determined in ocular samples and plasma following an established RRLCMS/MS method. The results are presented in Tables 5-7 and are expressed as mean values for the different pharmacokinetic parameters. Chromatogram integration was done using MassHunter software. Apparent Cmax and Tmax, T½, AUC1-48 h were calculated by Excel® software. Concentrations were expressed in ng/g or ng/mL of tissue/eye compartment."}, "[2]": {"assay": "Ocular pharmacokinetics of Comp-02 after intravitreal injection in rabbit", "type": "in vivo, pigmented HY79b rabbits", "details": "ocular examination with a slit lamp"}, "[3]": {"assay": "Ocular pharmacokinetics of Comp-02 after oral administration in rabbit", "type": "in vivo, pigmented HY79b rabbits", "details": "for Comp-02 content (below lower limit of detection): oral; for Cmax / Tmax / AUC / half-life: male, pigmented HY79b, rabbit; for Cmax: single oral 2 mg/kg (0.2 mg/mL); for Tmax / AUC / half-life: single oral 2 mg/kg; for AUC: read-out: AUC1-48 hours; for half-life: calculated from the Tmax value", "protocol": "as §1"}, "[4]": {"tested_on": "double transgenic rats (dTGR), renal tissue", "assay": "Renal inflammation (ED1 macrophage infiltration) in dTGR rat model of severe hypertension and end-organ damage", "type": "in vivo", "details": "1.33 mg/kg twice daily by gavage for 21 days, compared to vehicle treated dTGRs", "source_text": "(§2) The aim of this study was to assess and compare the effect of continuous oral treatment of a metabolically robust analog of 17,18-EEQ (Comp-02) or vehicle (isotonic salt solution) on physiological parameters, clinical chemistry and end-organ damage in male double transgenic rats (dTGR). Non-treated Sprague-Dawley rats (SD) of same genetic background were used as control. Double transgenic rats, overexpressing the human renin and angiotensinogen genes, develop severe hypertension and are a model for Ang-II induced end-organ damage with cardiac hypertrophy and kidney failure. Moreover, the dTGR model features severe […], cardiac hypertrophy and nephrosclerosis with marked fibrosis and inflammation.\n(§3) Before start of the experiment the animals were randomly assigned to either compound or vehicle treatment. […] Comp-02 was prepared in 61.6 ppm Na2CO3 and 0.9% NaCl ready to use solution for application, while dTGR animals were dosed twice daily with 0.9% NaCl ready to use solution for vehicle control. […] Samples were analysed using a Zeiss Axioplan-2 imaging microscope with the digital image-processing program AxioVision 4.8. […] Data were expressed as sum of 20 randomly chosen view fields, non-overlapping fields per section. […]"}, "HL-1 cells": {"tested_on": "HL-1 cells", "assay": "Viability of LPS-challenged HL-1 cardiomyocytes", "type": "cell-based, mouse", "details": "10 nM, 100 nM or 1 μM, 1 μg/mL LPS, 24 h", "protocol": "(§4) A cardiomyocyte cell line was used (mouse derived immortalized cardiomyocytes, HL-1 cells). Cells were either treated with vehicle (0.01% ethanol) or different concentrations of test compound (Comp-02: cE=10 nM, 100 nM or 1 μM). Simultaneously, the cells were challenged with 1 μg/mL lipopolysaccharide (LPS). After 24 h of incubation, the cells were processed to measure viability.\nas §4, with “In order to investigate the anti-inflammatory potential of compounds being part of the invention in vitro, a cardiomyocyte” for “A cardiomyocyte”, “measure viability (FIG. 2) and release of the pro-inflammatory cytokine TNF alpha (FIG. 3).” for “measure viability.”"}, "[5]": {"tested_on": "double transgenic rats (dTGR), cardiac tissue", "assay": "Cardiac inflammation (ED1 macrophage infiltration) in dTGR rat model of severe hypertension and end-organ damage", "type": "in vivo", "details": "1.33 mg/kg twice daily by gavage for 21 days, compared to vehicle treated dTGRs", "source_text": "as §2, §3"}, "[6]": {"assay": "Ocular pharmacokinetics of Comp-02 after topical administration (instillation) in rabbit", "type": "in vivo, pigmented HY79b rabbits", "details": "checked by ophthalmoscopy"}, "[7]": {"tested_on": "TNF alpha release from the HL-1 cells", "assay": "TNF alpha release from HL-1 cardiomyocytes", "type": "cell-based, mouse", "details": "24 h", "protocol": "as §4, with “release of the pro-inflammatory cytokine TNF alpha.” for “viability.”\nas §4, with “In order to investigate the anti-inflammatory potential of compounds being part of the invention in vitro, a cardiomyocyte” for “A cardiomyocyte”, “measure viability (FIG. 2) and release of the pro-inflammatory cytokine TNF alpha (FIG. 3).” for “measure viability.”"}, "[8]": {"assay": "Ocular pharmacokinetics of Comp-02 after topical administration (instillation) in rabbit", "type": "in vivo, pigmented HY79b rabbits", "details": "male, pigmented HY79b, topical or ocular, 50 μl of 1 mg/mL in both eyes; for Cmax: single instillation 50 μl (1 mg/mL) in both eyes; for Tmax / half-life / AUC: topical; for half-life: calculated from the Tmax value; for AUC: read-out: AUC1-48 hours", "protocol": "as §1"}, "[9]": {"details": "other: intravitreal injection, 50 μl of 1 mg/mL in both eyes, vitreous"}, "[10]": {"details": "other: intravitreal, 50 µg/eye, choroid"}, "[11]": {"details": "other: intravitreal, 50 µg/eye, plasma"}, "[12]": {"details": "other: intravitreal, 50 µg/eye, retina"}},
  "data": [
    {"smiles": "CNC(=O)C(=O)NCCCC/C=C\\CCCCCCCOCC(=O)O", "note": "[Comp-02, 2-((13-(2-(methylamino)-2-oxoacetamido)tridec-8(Z)-en-1-yl)oxy)acetic acid]", "values": [
      {"measurement": "Ocular exposure in the posterior eye, comparison of routes", "setting": "[1]; intravitreal injection compared to oral and topical administration", "result": "highest ocular exposures"},
      {"measurement": "AUC", "setting": "[1]; other: intravitreal injection, 50 μl of 1 mg/mL in both eyes, choroid", "result": 63300, "unit": "ng·h/mL"},
      {"measurement": "AUC", "setting": "[1]; other: intravitreal injection, 50 μl of 1 mg/mL in both eyes, plasma", "result": 287, "unit": "ng·h/mL"},
      {"measurement": "AUC", "setting": "[1]; other: intravitreal injection, 50 μl of 1 mg/mL in both eyes, retina", "result": 79900, "unit": "ng·h/mL"},
      {"measurement": "Tmax", "setting": "[1]; [9]", "result": 1, "unit": "h"},
      {"measurement": "AUC", "setting": "[1]; [9]", "result": 55400, "unit": "ng·h/mL"},
      {"measurement": "Tmax", "setting": "[1]; [10]", "result": 1, "unit": "h"},
      {"measurement": "half-life", "setting": "[1]; [10]", "result": 2.4, "unit": "h"},
      {"measurement": "Tmax", "setting": "[1]; [11]", "result": 2, "unit": "h"},
      {"measurement": "half-life", "setting": "[1]; [11]", "result": 4.2, "unit": "h"},
      {"measurement": "Tmax", "setting": "[1]; [12]", "result": 1, "unit": "h"},
      {"measurement": "half-life", "setting": "[1]; [12]", "result": 2.6, "unit": "h"},
      {"measurement": "half-life", "setting": "[1]; other: intravitreal, 50 µg/eye, vitreous", "result": 4.6, "unit": "h"},
      {"measurement": "Cmax", "setting": "[1]; 50 μl of 1 mg/mL in both eyes, choroid", "result": 15000, "unit": "ng/g"},
      {"measurement": "Cmax", "setting": "[1]; 50 μl of 1 mg/mL in both eyes, plasma", "result": 19, "unit": "ng/mL"},
      {"measurement": "Cmax", "setting": "[1]; 50 μl of 1 mg/mL in both eyes, retina", "result": 10100, "unit": "ng/g"},
      {"measurement": "Cmax", "setting": "[1]; 50 μl of 1 mg/mL in both eyes, vitreous", "result": 6650, "unit": "ng/mL"},
      {"measurement": "Macroscopic tolerability of the Comp-02 formulation", "setting": "[2]", "result": "very well tolerated"},
      {"measurement": "Comp-02 content (below lower limit of detection)", "setting": "[3]; aqueous humor samples, except for one out of 15 animals", "result": "< 0.1", "unit": "ng/10 μl injected"},
      {"measurement": "Cmax", "setting": "[3]; aqueous humor", "result": 8, "unit": "ng/mL"},
      {"measurement": "Tmax", "setting": "[3]; aqueous humor", "result": 1, "unit": "h"},
      {"measurement": "AUC", "setting": "[3]; aqueous humor", "result": 12, "unit": "ng·h/mL"},
      {"measurement": "Cmax", "setting": "[3]; choroid", "result": 246, "unit": "ng/g"},
      {"measurement": "Tmax", "setting": "[3]; choroid", "result": 1, "unit": "h"},
      {"measurement": "half-life", "setting": "[3]; choroid", "result": 9, "unit": "h"},
      {"measurement": "AUC", "setting": "[3]; choroid", "result": 1390, "unit": "ng·h/mL"},
      {"measurement": "Cmax", "setting": "[3]; plasma", "result": 1210, "unit": "ng/mL"},
      {"measurement": "Tmax", "setting": "[3]; plasma", "result": 1, "unit": "h"},
      {"measurement": "half-life", "setting": "[3]; plasma", "result": 6, "unit": "h"},
      {"measurement": "AUC", "setting": "[3]; plasma", "result": 6330, "unit": "ng·h/mL"},
      {"measurement": "Cmax", "setting": "[3]; retina", "result": 15, "unit": "ng/g"},
      {"measurement": "Tmax", "setting": "[3]; retina", "result": 4, "unit": "h"},
      {"measurement": "Comp-02 content (below lower limit of detection)", "setting": "[3]; retina samples, except for two out of 15 animals", "result": "< 0.1", "unit": "ng/10 μl injected"},
      {"measurement": "Macrophage infiltration (ED1 positive cells) in renal tissue", "setting": "[4]", "result": "significant reduction"},
      {"measurement": "Effect on LPS-induced reduction in cell viability (cytotoxic effect)", "setting": "HL-1 cells", "result": "dose-dependently reversed"},
      {"measurement": "Macrophage infiltration (ED1 positive cells) in cardiac tissue", "setting": "[5]", "result": "significant reduction"},
      {"measurement": "Macroscopic tolerability of the Comp-02 formulation", "setting": "[6]", "result": "very well tolerated"},
      {"measurement": "LPS-induced TNF alpha release", "setting": "[7]; 10 nM, 100 nM or 1 μM, 1 μg/mL LPS", "result": "significantly and dose-dependently reduced"},
      {"measurement": "Influence on TNF alpha production, compound alone", "setting": "[7]; Comp-02 alone (no LPS)", "result": "did not have an influence"},
      {"measurement": "Cmax", "setting": "[8]; aqueous humor", "result": 88, "unit": "ng/mL"},
      {"measurement": "Tmax", "setting": "[8]; aqueous humor", "result": 1, "unit": "h"},
      {"measurement": "half-life", "setting": "[8]; aqueous humor", "result": 1, "unit": "h"},
      {"measurement": "AUC", "setting": "[8]; aqueous humor", "result": 324, "unit": "ng·h/mL"},
      {"measurement": "Cmax", "setting": "[8]; choroid", "result": 79, "unit": "ng/g"},
      {"measurement": "Tmax", "setting": "[8]; choroid", "result": 1, "unit": "h"},
      {"measurement": "half-life", "setting": "[8]; choroid", "result": 0.7, "unit": "h"},
      {"measurement": "Cmax", "setting": "[8]; plasma", "result": 31, "unit": "ng/mL"},
      {"measurement": "Tmax", "setting": "[8]; plasma", "result": 0.5, "unit": "h"},
      {"measurement": "half-life", "setting": "[8]; plasma", "result": 5.4, "unit": "h"},
      {"measurement": "AUC", "setting": "[8]; plasma", "result": 262, "unit": "ng·h/mL"},
      {"measurement": "Cmax", "setting": "[8]; retina", "result": 24, "unit": "ng/g"},
      {"measurement": "Tmax", "setting": "[8]; retina", "result": 1, "unit": "h"}
    ]}
  ]
}
